Assay results from ChEMBL document CHEMBL1944630, “Indomethacin Analogues that Enhance Doxorubicin Cytotoxicity in Multidrug Resistant Cells without Cox Inhibitory Activity” (ACS Med Chem Lett, 2011).
Active and inactive are the calls of the source. The rule behind the calls is not given here.

Tests used:
[1] = biological target: T1, Prostaglandin G/H synthase 1 (Homo sapiens, UniProt P23219); test: Inhibition of COX1 at 100 uM
[2] = biological target: T2, Prostaglandin G/H synthase 2 (Homo sapiens, UniProt P35354); test: Inhibition of COX2
T2 sequence (P35354 whole entry): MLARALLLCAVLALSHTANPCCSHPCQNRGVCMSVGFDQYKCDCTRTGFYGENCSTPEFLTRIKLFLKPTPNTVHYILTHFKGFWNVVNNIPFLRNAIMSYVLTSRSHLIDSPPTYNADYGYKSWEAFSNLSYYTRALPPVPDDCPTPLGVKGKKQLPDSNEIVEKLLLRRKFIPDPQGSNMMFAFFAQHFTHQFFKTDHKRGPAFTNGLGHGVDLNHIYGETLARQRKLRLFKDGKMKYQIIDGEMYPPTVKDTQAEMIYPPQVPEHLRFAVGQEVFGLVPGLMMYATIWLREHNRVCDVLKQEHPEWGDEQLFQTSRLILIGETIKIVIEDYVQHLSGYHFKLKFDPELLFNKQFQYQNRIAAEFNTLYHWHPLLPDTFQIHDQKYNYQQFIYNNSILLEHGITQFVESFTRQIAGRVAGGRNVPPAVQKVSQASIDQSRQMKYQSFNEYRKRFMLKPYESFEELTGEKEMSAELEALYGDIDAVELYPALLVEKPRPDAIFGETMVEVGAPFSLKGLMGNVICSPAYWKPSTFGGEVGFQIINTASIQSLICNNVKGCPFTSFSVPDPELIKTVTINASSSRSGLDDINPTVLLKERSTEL

T98G [3] = test: Cytotoxicity against multidrug-resistant human T98G cells expressing MRP-1 at 50 uM after 3 days by crystal violet staining analysis; format: cell-based; details: 72 h
[4] = biological target: T1, Prostaglandin G/H synthase 1; test: Inhibition of COX1
T98G [5] = test: Potentiation of doxorubicin-induced cytotoxicity against multidrug-resistant human T98G cells expressing MRP-1 at 50 uM pretreated for 2 hrs prior addition of doxorubicin measured after 3 days by crystal violet staining analysis; format: functional, cell-based

T1 sequence (P23219 whole entry): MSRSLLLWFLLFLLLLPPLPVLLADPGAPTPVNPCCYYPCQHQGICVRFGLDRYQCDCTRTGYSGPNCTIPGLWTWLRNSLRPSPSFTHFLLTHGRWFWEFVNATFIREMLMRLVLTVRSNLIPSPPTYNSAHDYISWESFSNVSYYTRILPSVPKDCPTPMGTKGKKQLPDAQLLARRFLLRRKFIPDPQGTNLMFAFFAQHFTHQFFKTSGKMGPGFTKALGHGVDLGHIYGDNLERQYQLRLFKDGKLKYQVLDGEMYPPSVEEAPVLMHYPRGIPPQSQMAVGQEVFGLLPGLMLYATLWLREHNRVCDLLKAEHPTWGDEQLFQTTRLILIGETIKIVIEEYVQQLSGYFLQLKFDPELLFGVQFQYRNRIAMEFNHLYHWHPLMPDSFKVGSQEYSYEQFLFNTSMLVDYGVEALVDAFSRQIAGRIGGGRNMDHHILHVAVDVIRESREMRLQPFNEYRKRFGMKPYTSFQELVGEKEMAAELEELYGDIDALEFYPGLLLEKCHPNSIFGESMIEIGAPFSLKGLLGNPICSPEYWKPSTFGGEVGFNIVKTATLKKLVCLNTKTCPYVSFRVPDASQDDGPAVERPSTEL

inhibition [1] [%]	IC50 [2] [µM]	IC50 [4] [µM]	SMILES	Activity (T98G [3])	Activity (T98G [5])
< 0	> 400	> 400	CCc1c(CC(=O)O)c2ccccc2n1C(=O)c1ccc(Cl)cc1	Non-toxic	Active
38	–	–	CC(=O)Oc1ccccc1C(=O)O	–	–
79	39	0.01	Cc1c(CC(=O)O)c2ccccc2n1C(=O)c1ccc(Cl)cc1	–	–
< 0	> 400	> 400	O=C(O)Cc1c(-c2ccccc2)n(C(=O)c2ccc(Cl)cc2)c2ccccc12	Non-toxic	Active
